The values that follow come from paper PMC3670040, “Structure of Lipid Kinase p110β/p85β Elucidates an Unusual SH2-Domain-Mediated Inhibitory Mechanism” (Molecular Cell, 2011).

For assay [1], the system named is p110β. Put plainly: Transcreener ADP formation (fluorescence polarization), diC8-PIP2/POPS liposomes, mouse p110β complexes. To be noted: ADP formation, 10 μM, Figure 1B. It is filed as biochemical. The protocol:
Figure 1 Inhibition of p110β by p85-Type Regulatory Subunits and Activation of the Complexes by RTK Phosphopeptide (A) Domain organization of p110β and the regulatory subunits p85α, p85β, and p55γ. The color scheme for the domains is used for all figures, unless otherwise stated. […] The inhibition is released upon addition of the 10 μM PDGFR pY2. […] The y axis is expressed as a change in fluorescence polarization (ΔmP), which is obtained by subtracting the observed polarization for the construct at a given enzyme concentration from the maximum fluorescence polarization for that construct. The plateau in these assays arises due to the competitive nature of the ADP detection system, based on displacement of ADP-Alexa 633 tracer from the ADP^2-antibody by ADP generated during the PI3K assay (see Supplemental Experimental Procedures). All measurements were done in triplicates, and the error bars indicate the standard error of the mean (SEM). […]
Figure 3 Mutation Y677A in p85β-cSH2 Releases Inhibitory Effect on p110β (A) Kinase activity (ADP formation) of p110β in a complex with p85β-icSH2-Y677A (Y677A-ic) compared to the wild-type complex (ic) in the absence and presence of 10 μM PDGFR pY2 (ADP formation on the y axis expressed as in Figure 1B). […]
(§1) The lipid kinase activity was determined using the Transcreener ADP2 FP Assay (BellBrook Labs, Madison, WI) according to manufacturer‟s specifications. This non-radioactive assay measures activity by quantitating the amount of ADP formed. The ADP formed by PI3K competes with fluorescent ADP tracer for binding to an anti-ADP antibody, thereby decreasing fluorescence polarization. Because of the competitive nature of this assay, the change in fluorescence polarization signal is not a linear function of enzyme activity, and a convenient measure of enzyme activity is the EC50, or the concentration of enzyme necessary to give half-maximal inhibition of labeled ADP binding to the antibody, for a given concentration of substrate and a fixed time of reaction at initial rate. […]
(Fluorescence polarisation rises when a labelled molecule tumbles more slowly, as on binding a larger partner.)

Assay [2] concerns p110β/p85β complexes. In words: Transcreener ADP formation, soluble monomeric diC8-PIP2 substrate. The note with it: p110β/p85-niSH2 and p110β/p85-icSH2 complexes. The format is biochemical, mouse. Here is the method:
Figure 1 Inhibition of p110β by p85-Type Regulatory Subunits and Activation of the Complexes by RTK Phosphopeptide (A) Domain organization of p110β and the regulatory subunits p85α, p85β, and p55γ. The color scheme for the domains is used for all figures, unless otherwise stated. […] The inhibition is released upon addition of the 10 μM PDGFR pY2. […] The y axis is expressed as a change in fluorescence polarization (ΔmP), which is obtained by subtracting the observed polarization for the construct at a given enzyme concentration from the maximum fluorescence polarization for that construct. […]
as §1

Square brackets hold non-standard residues; d marks the D form. Ends that are not written are not given here. pY = N[C@@H](Cc1ccc(OP(=O)(O)O)cc1)C(=O)O

On to “ESDGG[pY]MDMSKDESID[pY]VPMLDMKGDIKYADIE [pY2, bis-phosphopeptide (PDGFR 735–767, with pY740 and pY751)]”, for which the “effect on activity of p110β/p85β-iSH2 or ΔABD-p110β” value in assay [1] was “did not affect the activity”. Besides, the “effect on kinase activity of complexes containing SH2 domains” value in assay [1] (nicSH2, niSH2, or icSH2 complexes) was “stimulates kinase activity”. For the same substance, the “activity with soluble lipid substrate in the presence of pY2” value in assay [2] was “enhanced”.
